Laboratory results as given in patent publication US20230276831A1, “Food/Beverage Article” (Kikkoman Corporation, priority 2020, published 2023).

Tested on: Lactobacillus acidipiscis NBRC 102163
Assay: Antimicrobial action of licoricidin in liquid seasoning (1), lactic acid bacteria C
Format: cell-based
Set-up: key: A: The bacterial count decreases to less than 10% of the bacterial count of the control group.; B: The bacterial count decreases to 10% or more and less than 50% of the bacterial count of the control group.; C: The bacterial count decreases to 50% or more and less than 100% of the bacterial count of control group.; D: The bacterial count is the same as the bacterial count of the control group
Experimental: Commercially available whole soybean soy sauce (produced by Kikkoman Corporation) was electrodialyzed and then concentrated under reduced pressure to obtain soy sauce at a salt concentration of 0% (w/v) and an alcohol concentration of 0% (v/v). Then, salt and/or alcohol was added to the above-mentioned obtained soy sauce, and the mixture was heat-treated to produce soy sauces at salt concentrations and alcohol concentrations shown in the following Table 5. The pHs of the soy sauces were 4.9 to 5.0.
Specifically, components contained in dried bonito was extracted with alcohol and water; sugar, salt, and seasonings were blended with the obtained extract; and the resulting mixture was heated to produce bonito stock. The salt concentration of the obtained bonito stock was 0.2% (w/v), the alcohol concentration was 0.15% (v/v), and the pH was 6.1.
Specifically, Koikuchi soy sauce (produced by Kikkoman Corporation), granulated sugar, potato starch, and water were blended in amounts shown in following Table 7, and the resulting mixture was heated to produce sauce. The salt concentration of the obtained sauce was 5.3% (w/v), the alcohol concentration was 0.8% (v/v), and the pH was 5.0.
Specifically, the components contained in dried bonito was extracted with water; Koikuchi soy sauce (produced by Kikkoman Corporation), sugar, and salt were blended with the obtained extract; and the resulting mixture was heated to produce Japanese seasoned soup stock. The salt concentration of the obtained Japanese seasoned soup stock was 3% (w/v), the alcohol concentration was 0.4% (v/v), and the pH was 5.5.
Licoricidin (produced by ChemFaces) was added to each of the liquid seasonings produced in the above-mentioned (1) to concentrations of 1 ppm, 5 ppm, 10 ppm, 25 ppm, and 50 ppm. Lactic acid bacteria described in the following Table 9 were then added to 10^6 to 10^7 cells/mL and cultured at 30° C. for 7 days. After the culture, the number of lactic acid bacteria was measured using the GAM agar medium “Nissui”. Liquid seasoning to which licoricidin was not added was used as a control group, and the antimicrobial activity was evaluated in comparison with the number of lactic acid bacteria in the control group. The evaluation was performed using the criterion shown below.
• A: The bacterial count decreases to less than 10% of the bacterial count of the control group. • B: The bacterial count decreases to 10% or more and less than 50% of the bacterial count of the control group. • C: The bacterial count decreases to 50% or more and less than 100% of the bacterial count of control group. • D: The bacterial count is the same as the bacterial count of the control group.

COc1c(CC=C(C)C)c(O)cc2c1C[C@H](c1ccc(O)c(CC=C(C)C)c1O)CO2 [Licoricidin, 4-[(R)-7-hydroxy-5-methoxy-6-(3-methyl-2-butenyl)chroman-3-yl]-2-(3-methyl-2-butenyl)-1,3-benzenediol]
Antimicrobial activity (Bonito stock (salt 0.2% (w/v), alcohol 0.15% (v/v), pH 6.1), licoricidin 1 ppm): C (The bacterial count decreases to 50% or more and less than 100% of the bacterial count of control group.)
Antimicrobial activity (Bonito stock (salt 0.2% (w/v), alcohol 0.15% (v/v), pH 6.1), licoricidin 5 ppm): A (The bacterial count decreases to less than 10% of the bacterial count of the control group.)
Antimicrobial activity (Bonito stock (salt 0.2% (w/v), alcohol 0.15% (v/v), pH 6.1), licoricidin 10 ppm): A (The bacterial count decreases to less than 10% of the bacterial count of the control group.)
Antimicrobial activity (Bonito stock (salt 0.2% (w/v), alcohol 0.15% (v/v), pH 6.1), licoricidin 25 ppm): A (The bacterial count decreases to less than 10% of the bacterial count of the control group.)
Antimicrobial activity (Bonito stock (salt 0.2% (w/v), alcohol 0.15% (v/v), pH 6.1), licoricidin 50 ppm): A (The bacterial count decreases to less than 10% of the bacterial count of the control group.)
Antimicrobial activity (Japanese seasoned soup stock (salt 3% (w/v), alcohol 0.4% (v/v), pH 5.5), licoricidin 1 ppm): D
Antimicrobial activity (Japanese seasoned soup stock (salt 3% (w/v), alcohol 0.4% (v/v), pH 5.5), licoricidin 5 ppm): A (The bacterial count decreases to less than 10% of the bacterial count of the control group.)
Antimicrobial activity (Japanese seasoned soup stock (salt 3% (w/v), alcohol 0.4% (v/v), pH 5.5), licoricidin 10 ppm): A (The bacterial count decreases to less than 10% of the bacterial count of the control group.)
Antimicrobial activity (Japanese seasoned soup stock (salt 3% (w/v), alcohol 0.4% (v/v), pH 5.5), licoricidin 25 ppm): A (The bacterial count decreases to less than 10% of the bacterial count of the control group.)
Antimicrobial activity (Japanese seasoned soup stock (salt 3% (w/v), alcohol 0.4% (v/v), pH 5.5), licoricidin 50 ppm): A (The bacterial count decreases to less than 10% of the bacterial count of the control group.)
Antimicrobial activity (Sauce (salt 5.3% (w/v), alcohol 0.8% (v/v), pH 5.0), licoricidin 1 ppm): B (The bacterial count decreases to 10% or more and less than 50% of the bacterial count of the control group.)
Antimicrobial activity (Sauce (salt 5.3% (w/v), alcohol 0.8% (v/v), pH 5.0), licoricidin 5 ppm): B (The bacterial count decreases to 10% or more and less than 50% of the bacterial count of the control group.)
Antimicrobial activity (Sauce (salt 5.3% (w/v), alcohol 0.8% (v/v), pH 5.0), licoricidin 10 ppm): A (The bacterial count decreases to less than 10% of the bacterial count of the control group.)
Antimicrobial activity (Sauce (salt 5.3% (w/v), alcohol 0.8% (v/v), pH 5.0), licoricidin 25 ppm): A (The bacterial count decreases to less than 10% of the bacterial count of the control group.)
Antimicrobial activity (Sauce (salt 5.3% (w/v), alcohol 0.8% (v/v), pH 5.0), licoricidin 50 ppm): A (The bacterial count decreases to less than 10% of the bacterial count of the control group.)
Antimicrobial activity (Soy sauce, salt 0% (w/v), alcohol 0% (v/v), licoricidin 1 ppm): C (The bacterial count decreases to 50% or more and less than 100% of the bacterial count of control group.)
Antimicrobial activity (Soy sauce, salt 0% (w/v), alcohol 0% (v/v), licoricidin 5 ppm): C (The bacterial count decreases to 50% or more and less than 100% of the bacterial count of control group.)
Antimicrobial activity (Soy sauce, salt 0% (w/v), alcohol 0% (v/v), licoricidin 10 ppm): B (The bacterial count decreases to 10% or more and less than 50% of the bacterial count of the control group.)
Antimicrobial activity (Soy sauce, salt 0% (w/v), alcohol 0% (v/v), licoricidin 25 ppm): A (The bacterial count decreases to less than 10% of the bacterial count of the control group.)
Antimicrobial activity (Soy sauce, salt 0% (w/v), alcohol 0% (v/v), licoricidin 50 ppm): A (The bacterial count decreases to less than 10% of the bacterial count of the control group.)
Antimicrobial activity (Soy sauce, salt 4% (w/v), alcohol 0% (v/v), licoricidin 1 ppm): C (The bacterial count decreases to 50% or more and less than 100% of the bacterial count of control group.)
Antimicrobial activity (Soy sauce, salt 4% (w/v), alcohol 0% (v/v), licoricidin 5 ppm): A (The bacterial count decreases to less than 10% of the bacterial count of the control group.)
Antimicrobial activity (Soy sauce, salt 4% (w/v), alcohol 0% (v/v), licoricidin 10 ppm): A (The bacterial count decreases to less than 10% of the bacterial count of the control group.)
Antimicrobial activity (Soy sauce, salt 4% (w/v), alcohol 0% (v/v), licoricidin 25 ppm): A (The bacterial count decreases to less than 10% of the bacterial count of the control group.)
Antimicrobial activity (Soy sauce, salt 4% (w/v), alcohol 0% (v/v), licoricidin 50 ppm): A (The bacterial count decreases to less than 10% of the bacterial count of the control group.)
Antimicrobial activity (Soy sauce, salt 8% (w/v), alcohol 0% (v/v), licoricidin 1 ppm): D
Antimicrobial activity (Soy sauce, salt 8% (w/v), alcohol 0% (v/v), licoricidin 5 ppm): A (The bacterial count decreases to less than 10% of the bacterial count of the control group.)
Antimicrobial activity (Soy sauce, salt 8% (w/v), alcohol 0% (v/v), licoricidin 10 ppm): A (The bacterial count decreases to less than 10% of the bacterial count of the control group.)
Antimicrobial activity (Soy sauce, salt 8% (w/v), alcohol 0% (v/v), licoricidin 25 ppm): A (The bacterial count decreases to less than 10% of the bacterial count of the control group.)
Antimicrobial activity (Soy sauce, salt 8% (w/v), alcohol 0% (v/v), licoricidin 50 ppm): A (The bacterial count decreases to less than 10% of the bacterial count of the control group.)
Antimicrobial activity (Soy sauce, salt 12% (w/v), alcohol 0% (v/v), licoricidin 1 ppm): B (The bacterial count decreases to 10% or more and less than 50% of the bacterial count of the control group.)
Antimicrobial activity (Soy sauce, salt 12% (w/v), alcohol 0% (v/v), licoricidin 5 ppm): A (The bacterial count decreases to less than 10% of the bacterial count of the control group.)
Antimicrobial activity (Soy sauce, salt 12% (w/v), alcohol 0% (v/v), licoricidin 10 ppm): A (The bacterial count decreases to less than 10% of the bacterial count of the control group.)
Antimicrobial activity (Soy sauce, salt 12% (w/v), alcohol 0% (v/v), licoricidin 25 ppm): A (The bacterial count decreases to less than 10% of the bacterial count of the control group.)
Antimicrobial activity (Soy sauce, salt 12% (w/v), alcohol 0% (v/v), licoricidin 50 ppm): A (The bacterial count decreases to less than 10% of the bacterial count of the control group.)
